How the values were obtained:
[1] = LC-MS, previous study of the authors; cited from earlier work
GRPR = GRPR (Homo sapiens, UniProt P30550); test: Competitive binding assay, displacement of 125I-[Tyr4]BBN on PC-3 cells
GRPR, sequence (P30550 whole entry): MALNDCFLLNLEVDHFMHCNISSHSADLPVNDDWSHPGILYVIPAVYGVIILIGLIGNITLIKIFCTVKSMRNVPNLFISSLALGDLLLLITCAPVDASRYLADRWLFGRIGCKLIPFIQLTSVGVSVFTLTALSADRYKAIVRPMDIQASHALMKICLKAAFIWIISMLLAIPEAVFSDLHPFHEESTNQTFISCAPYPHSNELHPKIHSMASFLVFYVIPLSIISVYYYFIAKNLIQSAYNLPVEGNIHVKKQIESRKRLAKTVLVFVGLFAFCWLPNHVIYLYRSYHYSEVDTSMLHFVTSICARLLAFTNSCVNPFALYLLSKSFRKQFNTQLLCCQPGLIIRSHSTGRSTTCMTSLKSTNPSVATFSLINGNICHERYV

| SMILES | t1/2 of degradation during incubation in rat hepatocytes [1] | IC50 (GRPR) |
| --- | --- | --- |
| CSCC[C@H](NC(=O)[C@H](CC(C)C)NC(=O)[C@H](Cc1cnc[nH]1)NC(=O)CNC(=O)[C@@H](NC(=O)[C@H](C)NC(=O)[C@H](Cc1c[nH]c2ccccc12)NC(=O)[C@@H](N)CCC(N)=O)C(C)C)C(N)=O [BBN7–14] | 4 min |  |
| CSCC[C@H](NC(=O)[C@H](CC(C)C)NC(=O)[C@H](Cc1c[nH]cn1)NC(=O)CNC(=O)[C@@H](NC(=O)[C@H](C)NC(=O)[C@H](Cc1c[nH]c2ccccc12)NC(=O)[C@H](CCC(N)=O)NC(=O)CCCCCNC(=O)CN1CCN(CC(=O)O)CCN(CC(=O)O)CC1)C(C)C)C(N)=O [NOTA–Aca–BBN7–14] |  | 1.8 ± 0.67 nM |

Source: paper PMC5824342 (Bioconjugate Chemistry, 2017)
